Laboratory results reported in patent publication US8158643B2, “Substituted diaza-spiro-pyridinone derivatives for use in MCH-1 mediated diseases” (Janssen Pharmaceutica N.V., priority 2006, dated 2012).

Tests used:
human MCH-1 receptor = target: T1, human MCH-1 receptor (Homo sapiens, UniProt Q99705); assay: Ca2+ mobilization experiment for the MCH-1 receptor (FLIPR), inhibition of MCH-induced Ca2+ response; assay type: cell-based; details: CHO cells stably expressing human MCH-1 receptor, submaximal MCH concentration, read-out: MCH-1 pIC50 (converted)
T1 construct: expressed in transfected cells
T1 sequence (Q99705 whole entry): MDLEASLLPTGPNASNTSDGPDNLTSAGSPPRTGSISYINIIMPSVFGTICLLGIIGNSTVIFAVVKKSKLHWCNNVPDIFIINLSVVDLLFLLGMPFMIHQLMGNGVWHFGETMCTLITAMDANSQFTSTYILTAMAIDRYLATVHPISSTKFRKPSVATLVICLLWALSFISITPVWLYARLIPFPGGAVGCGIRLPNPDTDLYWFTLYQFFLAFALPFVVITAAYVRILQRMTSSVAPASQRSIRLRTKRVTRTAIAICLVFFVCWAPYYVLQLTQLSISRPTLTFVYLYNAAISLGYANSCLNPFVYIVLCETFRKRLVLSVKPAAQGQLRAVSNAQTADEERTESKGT
Protocol: The interaction of the compounds of Formula (I) with MCH-1 receptors was assessed in in vitro transient calcium (Ca^2+) mobilization assays in the fluorimetric imaging plate reader (FLIPR) format (Sullivan et al. 1999, Methods Mol Biol 114:125-133). In general, the natural agonist (MCH) is incubated with cells expressing the MCH-1 receptor, which elicits a concentration-dependent transient mobilization of Ca^2+ from internal stores. The interaction of the test compounds with the receptor is assessed in competition experiments. Various concentrations of the test compound are added to the incubation mixture containing the receptor-expressing cells and a submaximal concentration of MCH. The test compound in proportion to its antagonist potency and its concentration inhibits MCH-induced Ca^2+ mobilization.
Cell culture and membrane preparation. Chinese Hamster ovary cells (CHO) stably expressing the human MCH-1 receptor are grown in a 1:1 mixture of Dulbecco's Modified Eagles Medium (DMEM) and HAM's F12 medium including Glutamax™ (Invitrogen), supplemented with 10% heat-inactivated fetal bovine serum and 400 μg/ml geneticin.
Ca^2+ mobilization experiment for the MCH-1 receptor. Twenty-four hours before the experiment, MCH-1 receptor-expressing CHO cells are seeded in 20 μl (5,000 cells per well) into 384-well black wall, clear bottom microtiter plates (Costar). On the day of the experiment, 20 μl per well calcium assay kit containing 10 mM probenicide (Molecular Devices) is added. Cells are loaded for 90 min at 37° C. and 5% CO2 in a cell culture incubator. After loading, 20 μl of serial dilutions of the test compound are added and cells are further incubated for 20 min at room temperature in the dark. After 20 min, 20 μl of a submaximal MCH concentration is added and changes in intracellular calcium are recorded directly in a FLIPR III apparatus (Molecular devices).
Data analysis and results. Data from assays in the presence of compound were calculated as a percentage of total Ca^2+-responses measured in the absence of test compound. Inhibition curves, plotting percent of total Ca^2+-responses versus the log value of the concentration of the test compound, were automatically generated, and sigmoidal inhibition curves were fitted using non-linear regression. The pIC50 values of test compounds were derived from individual curves.

HERG potassium channel = target: T2, HERG potassium channel (Homo sapiens, UniProt Q12809); assay: hERG-mediated K+ tail current, automated whole-cell patch clamp (PatchXpress 7000A) in HEK293 cells stably transfected with HERG; assay type: cell-based; details: measured after 5 minutes of drug application
T2 construct: expressed in transfected cells
T2 sequence (Q12809 whole entry): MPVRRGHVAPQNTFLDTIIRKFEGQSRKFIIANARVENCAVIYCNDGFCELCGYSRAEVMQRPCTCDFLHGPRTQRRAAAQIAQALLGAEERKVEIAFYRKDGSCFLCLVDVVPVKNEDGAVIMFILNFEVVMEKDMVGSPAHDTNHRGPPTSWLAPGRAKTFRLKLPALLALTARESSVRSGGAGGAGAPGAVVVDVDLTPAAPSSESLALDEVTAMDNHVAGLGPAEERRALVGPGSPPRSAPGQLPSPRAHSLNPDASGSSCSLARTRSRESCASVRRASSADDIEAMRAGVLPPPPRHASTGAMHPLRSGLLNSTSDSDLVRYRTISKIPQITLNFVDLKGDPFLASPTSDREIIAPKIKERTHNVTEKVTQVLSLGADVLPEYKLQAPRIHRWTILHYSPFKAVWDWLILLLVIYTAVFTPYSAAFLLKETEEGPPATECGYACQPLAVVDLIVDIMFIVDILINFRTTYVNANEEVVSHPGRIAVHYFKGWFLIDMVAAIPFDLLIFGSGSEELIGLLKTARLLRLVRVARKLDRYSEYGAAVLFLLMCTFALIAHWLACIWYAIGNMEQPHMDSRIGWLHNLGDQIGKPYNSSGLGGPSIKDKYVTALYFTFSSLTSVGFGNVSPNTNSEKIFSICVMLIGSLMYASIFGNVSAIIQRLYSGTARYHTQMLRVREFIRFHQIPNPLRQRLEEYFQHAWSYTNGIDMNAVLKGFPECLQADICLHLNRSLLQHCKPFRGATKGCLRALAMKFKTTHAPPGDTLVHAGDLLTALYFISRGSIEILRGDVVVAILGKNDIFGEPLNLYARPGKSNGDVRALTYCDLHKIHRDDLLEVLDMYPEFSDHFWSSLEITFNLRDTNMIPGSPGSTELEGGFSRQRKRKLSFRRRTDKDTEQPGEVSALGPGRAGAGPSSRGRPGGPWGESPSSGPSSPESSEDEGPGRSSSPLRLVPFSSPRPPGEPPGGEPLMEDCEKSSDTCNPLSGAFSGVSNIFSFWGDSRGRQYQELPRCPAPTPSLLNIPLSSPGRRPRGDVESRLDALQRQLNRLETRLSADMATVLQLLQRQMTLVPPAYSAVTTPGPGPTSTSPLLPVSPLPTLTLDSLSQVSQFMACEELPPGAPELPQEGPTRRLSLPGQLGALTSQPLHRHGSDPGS
From the text: To determine the extent of block the residual current was compared with vehicle pre-treatment.

IC50 (human MCH-1 receptor) [nM]	melting point [°C]	Structure (SMILES)	hERG-reduction (%) at 3 μM (HERG potassium channel) [%]
79.4		O=c1cc(OCc2ccccc2)ccn1-c1ccc(N2CCC3(CC2)CNC3)cc1 [Compound 1-1]	
50.1	141.5	O=c1cc(OCc2ccccc2)ccn1-c1ccc(N2CCC3(CCCNC3)CC2)cc1 [Compound 1-2]	
126		O=c1cc(OCc2ccccc2)ccn1-c1ccc(N2CCC3(CC2)CNCCO3)cc1 [Compound 1-3]	
31.6		O=c1cc(OCc2ccccc2)ccn1-c1ccc(N2CCCC3(CCNC3)C2)cc1 (stereo not drawn) [Compound 1-4]	
31.6	203.2	O=c1cc(OCc2ccccc2)ccn1-c1ccc(N2CC3(CCNCC3)C2)cc1 [Compound 1-5]	
25.1		O=c1cc(OCc2ccccc2)ccn1-c1ccc(N2CCC3(CCCNC3)C2)cc1 (stereo not drawn) [Compound 1-6]	
63.1	236.3	O=c1cc(OCc2ccccc2)ccn1-c1ccc(N2CCC3(CCNCC3)C2)cc1 [Compound 1-7]	−1.8
63.1		CCN1CCC2(CC1)CN(c1ccc(-n3ccc(OCc4ccccc4)cc3=O)cc1)C2 [Compound 1-8]	
100	276.5	O=c1cc(OCc2ccccc2)ccn1-c1ccc(N2CC3(CCN(C4CC4)CC3)C2)cc1 [Compound 1-9]	
79.4		O=C1CC2(CCNCC2)CN1c1ccc(-n2ccc(OCc3ccccc3)cc2=O)cc1 [Compound 1-10]	
50.1		O=C1N(c2ccc(-n3ccc(OCc4ccccc4)cc3=O)cc2)CC12CCNCC2 [Compound 1-11]	
25.1	231	O=c1cc(OCc2ccccc2)ccn1-c1ccc(N2CC3(CCNCC3)C2)cc1 [Compound 1-12]	0.7
31.6		CN1CCC2(CC1)CCN(c1ccc(-n3ccc(OCc4ccccc4)cc3=O)cc1)C2 [Compound 1-14]	
25.1	164.6	Cc1cc(-n2ccc(OCc3ccccc3)cc2=O)ccc1N1CC2(CCNCC2)C1 [Compound 2-1]	15.6
39.8		COc1cc(-n2ccc(OCc3ccccc3)cc2=O)ccc1N1CC2(CCNCC2)C1 [Compound 2-2]	
25.1		O=c1cc(OCc2ccccc2)ccn1-c1ccc(N2CC3(CCNCC3)C2)c(Cl)c1 [Compound 2-3]	
31.6		CN1CCC2(CC1)CN(c1ccc(-n3ccc(OCc4ccccc4)cc3=O)cc1Cl)C2 [Compound 2-4]	
63.1		O=c1cc(/C=C/c2ccccc2)ccn1-c1ccc(N2CC3(CCNCC3)C2)cc1 [Compound 3-1]	
39.8		O=c1cc(OCc2ccc(F)cc2)ccn1-c1ccc(N2CC3(CCNCC3)C2)cc1 [Compound 3-2]	
501	292.7	O=c1cc(COc2ccccc2)ccn1-c1ccc(N2CC3(CCNCC3)C2)cc1 [Compound 3-3]	
